Like-named read-outs stand apart in the source and are kept apart here.

Our source for the Km values is paper PMC9225045, “Purification and Characterization of a Novel α-L-Rhamnosidase from Papiliotrema laurentii ZJU-L07 and Its Application in Production of Icariin from Epimedin C” (Journal of Fungi, 2022).

Experiment [1] relates to T1, α-L-rhamnosidase from P. laurentii ZJU-L07.
T1 construct: gene EC 3.2.1.40
The note with it: 1.0-5.0 mM substrate; pH and temperature of the kinetic assay not stated separately. The source says: Lineweaver-Burk; HPLC for epimedin C and icariin on α-L-rhamnosidase from P. laurentii ZJU-L07 | When epimedin C was used as a nature substrate to determine the kinetic parameters

The test system of experiment [2] is T2, α-L-rhamnosidase from P. laurentii ZJU-L07.
T2 construct: gene EC 3.2.1.40; native intracellular enzyme purified from cells of the soil isolate (strain mutagenized by gamma rays and nitrosoguanidine); 100 kDa by SDS-PAGE
Put plainly: p-nitrophenol release at […] nm, Lineweaver-Burk. The class given is biochemical, Papiliotrema laurentii. Particulars: pH 7.0 citric acid-Na2HPO4, 55 °C (standard assay); 2.0-10.0 mM substrate.

In the case of `COc1ccc(-c2oc3c(CC=C(C)C)c(O[C@@H]4O[C@H](CO)[C@@H](O)[C@H](O)[C@H]4O)cc(O)c3c(=O)c2O[C@@H]2O[C@@H](C)[C@H](O)[C@@H](O)[C@H]2O[C@@H]2O[C@@H](C)[C@H](O)[C@@H](O)[C@H]2O)cc1` [epimedin C], the Km in experiment [1] came to 3280 µM.
As for `C[C@@H]1O[C@@H](Oc2ccc([N+](=O)[O-])cc2)[C@H](O)[C@H](O)[C@H]1O` [p-nitrophenyl-α-L-rhamnopyranoside], in experiment [2], the Km worked out at 1380 µM.
